Test results taken from ChEMBL document CHEMBL1201862, “PubChem BioAssay data set” (2004).
“And” between values parts separate entries of the source, which are not always exact repeats. Equal values may be shown once. The source made the active and inactive calls.

Key:
[1] = test system: Vero; test: host cell cytotoxicity of antiviral hits, dose response, cytotoxicity control for West Nile virus antiviral project, secondary assay (AID 1650); type: functional; settings: Chlorocebus sabaeus
[2] = inhibitors of PGC1a acetylation in cells, dose response, cell-based, cherry-picked samples (AID 720514); type: functional;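 further: potency may reflect raised or lowered acetylation signal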
[3] = cytotoxicity in HPDE-C7 cells, cell-based, fluorescence, HTS (AID 430); type: functional; settings: Homo sapiens
[4] = cytotoxicity in KRAS-transformed pancreatic duct cells, primary screen, cell-based, fluorescence, HTS (AID 431); type: functional; settings: Homo sapiens;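 further: cell line used: HPDE-C7K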
[5] = HEp-2 cell cytotoxicity, dose response, cytotoxicity control for RSV inhibitor project, HTS (AID 2410); type: functional; settings: human respiratory syncytial virus
[6] = test system: Vero; test: West Nile virus antiviral activity, cell-based, CPE readout (AID 1621); type: functional; settings: Chlorocebus sabaeus
[7] = test system: Vero; test: cells; type: functional; settings: Chlorocebus sabaeus
[8] = target: T1, Bcl-2-related protein A1 (Mus musculus, UniProt Q07440); test: Bfl-1 inhibitors, primary screen, biochemical, fluorescence polarization, FITC-Bid, mouse (AID 432)
T1 sequence (Q07440 whole entry): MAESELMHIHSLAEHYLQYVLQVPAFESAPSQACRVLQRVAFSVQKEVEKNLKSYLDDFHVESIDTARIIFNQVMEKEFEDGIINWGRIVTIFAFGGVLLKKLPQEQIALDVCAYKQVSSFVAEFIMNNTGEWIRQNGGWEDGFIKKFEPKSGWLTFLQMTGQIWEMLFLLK

[9] = target: T1, Bcl-2-related protein A1; test: Bfl-1 binding inhibitors, SAR follow-up, biochemical, fluorescence polarization (AID 1070)
[10] = target: Glyceraldehyde-3-phosphate dehydrogenase (Homo sapiens, UniProt P04406)
[11] = target: T2, Tyrosine-protein phosphatase non-receptor type 7 (Homo sapiens, UniProt P35236); test: inhibitors of human HePTP phosphatase, […], biochemical, absorbance, leukemia target (AID 521); type: functional
T2 sequence (P35236 whole entry): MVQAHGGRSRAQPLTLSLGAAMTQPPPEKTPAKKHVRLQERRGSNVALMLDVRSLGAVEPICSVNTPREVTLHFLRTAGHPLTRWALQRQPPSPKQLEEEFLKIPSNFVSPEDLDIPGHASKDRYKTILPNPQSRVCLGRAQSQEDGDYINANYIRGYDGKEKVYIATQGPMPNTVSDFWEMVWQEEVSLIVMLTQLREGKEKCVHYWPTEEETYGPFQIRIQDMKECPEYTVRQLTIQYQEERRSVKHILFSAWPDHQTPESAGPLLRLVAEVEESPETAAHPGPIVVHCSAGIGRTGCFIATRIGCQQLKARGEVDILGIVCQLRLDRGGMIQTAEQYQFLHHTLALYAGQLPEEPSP

[12] = target: T1, Bcl-2-related protein A1; test: Bfl-1 inhibitors blocking BH3 peptide binding, confirmation, biochemical, TR-FRET, mouse Bfl-1 (AID 621);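 further: TR-FRET binding of GST-Bfl-1 to FITC-labelled Bid peptide via terbium antibody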
[13] = target: Voltage-gated inwardly rectifying potassium channel KCNH2 (Homo sapiens, UniProt Q12809); test: hERG protection from proarrhythmic block, potency, dose response, cell-based, thallium flux (AID 2121); type: ADME
[14] = target: Sphingosine 1-phosphate receptor 2 (Homo sapiens, UniProt O95136); test: Dose Response Cell Based Assay for Agonists of the S1P2 Receptor of Purchased Analogues. [Related pubchem assays: 729, 843, 854, 736 ]; type: functional
[15] = target: Cytochrome P450 3A4 (Homo sapiens, UniProt P08684); settings: Potency;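 further: confirmatory qHTS run detecting inhibitors and substrates of CYP3A4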
[16] = target: Cytochrome P450 2C19 (Homo sapiens, UniProt P33261); test: qHTS Assay for Inhibitors and Substrates of Cytochrome P450 2C19. [Related pubchem assays: 410 ]; type: ADME; settings: read-out: Potency
[17] = target: Cytochrome P450 2D6 (Homo sapiens, UniProt P10635); test: qHTS Assay for Inhibitors and Substrates of Cytochrome P450 2D6. [Related pubchem assays: 410 ]; type: ADME; settings: read-out: Potency
[18] = target: Neuropeptide Y receptor type 2 (Homo sapiens, UniProt P49146); type: functional, cell-based;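 further: HEK293 cells expressing the receptor and a CNG channel; stimulus was NPY near EC95 followed by isoproterenol to raise cAMP; antagonist potency measured as restoring cAMP signal that NPY suppresses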
[19] = target: Neuropeptide Y receptor type 1 (Homo sapiens, UniProt P25929); type: functional;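 further: HEK293 cells with a CNG channel challenged with NPY then isoproterenol; potency as antagonist that reverses NPY suppression of cAMP signal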
Sequence of Neuropeptide Y receptor type 1 (P25929 whole entry): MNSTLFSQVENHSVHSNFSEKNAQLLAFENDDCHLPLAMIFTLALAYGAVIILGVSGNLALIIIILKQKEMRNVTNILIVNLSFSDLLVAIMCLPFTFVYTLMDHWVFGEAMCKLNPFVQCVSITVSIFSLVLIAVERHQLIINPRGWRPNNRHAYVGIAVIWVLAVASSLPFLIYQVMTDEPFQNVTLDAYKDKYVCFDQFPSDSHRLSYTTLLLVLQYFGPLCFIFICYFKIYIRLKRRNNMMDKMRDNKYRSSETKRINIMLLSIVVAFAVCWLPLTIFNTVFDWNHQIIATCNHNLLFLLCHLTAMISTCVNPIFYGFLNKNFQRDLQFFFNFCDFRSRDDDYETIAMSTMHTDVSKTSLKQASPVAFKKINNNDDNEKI

Sequence of Cytochrome P450 2D6 (P10635 whole entry): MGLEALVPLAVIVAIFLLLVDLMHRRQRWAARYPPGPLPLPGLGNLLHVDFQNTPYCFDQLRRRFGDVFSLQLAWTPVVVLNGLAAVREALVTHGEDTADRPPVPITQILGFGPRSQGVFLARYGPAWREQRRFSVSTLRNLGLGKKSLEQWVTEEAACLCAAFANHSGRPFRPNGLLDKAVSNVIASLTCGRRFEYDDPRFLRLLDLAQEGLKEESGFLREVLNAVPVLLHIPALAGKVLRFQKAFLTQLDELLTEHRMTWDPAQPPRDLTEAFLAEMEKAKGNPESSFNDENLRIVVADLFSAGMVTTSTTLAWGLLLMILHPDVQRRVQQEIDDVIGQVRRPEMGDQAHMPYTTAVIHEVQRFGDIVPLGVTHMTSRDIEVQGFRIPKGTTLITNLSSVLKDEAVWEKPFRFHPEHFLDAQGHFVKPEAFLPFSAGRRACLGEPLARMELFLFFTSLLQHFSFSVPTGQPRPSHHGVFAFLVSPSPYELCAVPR
Sequence of Cytochrome P450 3A4 (P08684 whole entry): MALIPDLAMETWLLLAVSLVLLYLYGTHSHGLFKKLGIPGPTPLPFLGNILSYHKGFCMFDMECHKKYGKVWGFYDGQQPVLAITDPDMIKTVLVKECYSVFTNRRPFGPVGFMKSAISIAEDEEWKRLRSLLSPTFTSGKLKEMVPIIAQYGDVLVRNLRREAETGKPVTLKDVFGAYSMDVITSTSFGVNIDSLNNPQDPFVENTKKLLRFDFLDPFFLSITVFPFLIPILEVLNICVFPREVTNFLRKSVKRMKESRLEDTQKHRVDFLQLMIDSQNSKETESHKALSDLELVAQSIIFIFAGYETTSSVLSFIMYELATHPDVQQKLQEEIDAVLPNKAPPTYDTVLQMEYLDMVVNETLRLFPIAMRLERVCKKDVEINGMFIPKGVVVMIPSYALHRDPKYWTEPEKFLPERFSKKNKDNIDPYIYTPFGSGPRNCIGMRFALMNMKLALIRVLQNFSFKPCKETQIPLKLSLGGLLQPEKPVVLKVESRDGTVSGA
Sequence of Neuropeptide Y receptor type 2 (P49146 whole entry): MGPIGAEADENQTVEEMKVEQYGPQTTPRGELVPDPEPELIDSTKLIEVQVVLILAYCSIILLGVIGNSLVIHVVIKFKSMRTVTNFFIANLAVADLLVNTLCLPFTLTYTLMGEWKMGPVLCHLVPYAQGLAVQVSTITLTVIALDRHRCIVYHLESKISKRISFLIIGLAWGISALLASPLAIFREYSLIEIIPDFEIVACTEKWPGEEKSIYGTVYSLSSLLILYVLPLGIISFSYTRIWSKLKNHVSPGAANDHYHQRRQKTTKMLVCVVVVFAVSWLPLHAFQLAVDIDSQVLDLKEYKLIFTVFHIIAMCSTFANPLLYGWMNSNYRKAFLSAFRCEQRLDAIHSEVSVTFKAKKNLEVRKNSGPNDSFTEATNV
Sequence of Glyceraldehyde-3-phosphate dehydrogenase (P04406 whole entry): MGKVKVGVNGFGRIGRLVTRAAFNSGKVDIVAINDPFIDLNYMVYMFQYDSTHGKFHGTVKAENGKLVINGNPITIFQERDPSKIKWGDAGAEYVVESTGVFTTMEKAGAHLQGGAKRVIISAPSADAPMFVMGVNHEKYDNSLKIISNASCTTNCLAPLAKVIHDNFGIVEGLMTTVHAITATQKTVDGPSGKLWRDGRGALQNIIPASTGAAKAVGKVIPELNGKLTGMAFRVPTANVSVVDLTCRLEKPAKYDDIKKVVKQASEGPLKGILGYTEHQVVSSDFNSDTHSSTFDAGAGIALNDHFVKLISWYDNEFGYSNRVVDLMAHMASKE
Sequence of Cytochrome P450 2C19 (P33261 whole entry): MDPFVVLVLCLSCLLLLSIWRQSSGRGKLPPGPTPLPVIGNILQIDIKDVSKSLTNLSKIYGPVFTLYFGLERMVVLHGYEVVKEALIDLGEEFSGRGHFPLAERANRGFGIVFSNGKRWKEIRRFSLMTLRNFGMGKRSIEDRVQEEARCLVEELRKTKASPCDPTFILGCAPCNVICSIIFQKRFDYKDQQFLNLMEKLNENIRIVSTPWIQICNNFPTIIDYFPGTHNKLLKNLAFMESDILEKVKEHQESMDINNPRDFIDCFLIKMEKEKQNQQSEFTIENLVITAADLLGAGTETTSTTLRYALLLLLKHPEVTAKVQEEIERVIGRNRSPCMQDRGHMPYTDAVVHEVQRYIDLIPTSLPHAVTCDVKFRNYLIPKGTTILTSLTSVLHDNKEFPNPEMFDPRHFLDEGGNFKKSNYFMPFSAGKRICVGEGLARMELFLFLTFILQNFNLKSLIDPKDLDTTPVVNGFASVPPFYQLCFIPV
Sequence of Voltage-gated inwardly rectifying potassium channel KCNH2 (Q12809 whole entry): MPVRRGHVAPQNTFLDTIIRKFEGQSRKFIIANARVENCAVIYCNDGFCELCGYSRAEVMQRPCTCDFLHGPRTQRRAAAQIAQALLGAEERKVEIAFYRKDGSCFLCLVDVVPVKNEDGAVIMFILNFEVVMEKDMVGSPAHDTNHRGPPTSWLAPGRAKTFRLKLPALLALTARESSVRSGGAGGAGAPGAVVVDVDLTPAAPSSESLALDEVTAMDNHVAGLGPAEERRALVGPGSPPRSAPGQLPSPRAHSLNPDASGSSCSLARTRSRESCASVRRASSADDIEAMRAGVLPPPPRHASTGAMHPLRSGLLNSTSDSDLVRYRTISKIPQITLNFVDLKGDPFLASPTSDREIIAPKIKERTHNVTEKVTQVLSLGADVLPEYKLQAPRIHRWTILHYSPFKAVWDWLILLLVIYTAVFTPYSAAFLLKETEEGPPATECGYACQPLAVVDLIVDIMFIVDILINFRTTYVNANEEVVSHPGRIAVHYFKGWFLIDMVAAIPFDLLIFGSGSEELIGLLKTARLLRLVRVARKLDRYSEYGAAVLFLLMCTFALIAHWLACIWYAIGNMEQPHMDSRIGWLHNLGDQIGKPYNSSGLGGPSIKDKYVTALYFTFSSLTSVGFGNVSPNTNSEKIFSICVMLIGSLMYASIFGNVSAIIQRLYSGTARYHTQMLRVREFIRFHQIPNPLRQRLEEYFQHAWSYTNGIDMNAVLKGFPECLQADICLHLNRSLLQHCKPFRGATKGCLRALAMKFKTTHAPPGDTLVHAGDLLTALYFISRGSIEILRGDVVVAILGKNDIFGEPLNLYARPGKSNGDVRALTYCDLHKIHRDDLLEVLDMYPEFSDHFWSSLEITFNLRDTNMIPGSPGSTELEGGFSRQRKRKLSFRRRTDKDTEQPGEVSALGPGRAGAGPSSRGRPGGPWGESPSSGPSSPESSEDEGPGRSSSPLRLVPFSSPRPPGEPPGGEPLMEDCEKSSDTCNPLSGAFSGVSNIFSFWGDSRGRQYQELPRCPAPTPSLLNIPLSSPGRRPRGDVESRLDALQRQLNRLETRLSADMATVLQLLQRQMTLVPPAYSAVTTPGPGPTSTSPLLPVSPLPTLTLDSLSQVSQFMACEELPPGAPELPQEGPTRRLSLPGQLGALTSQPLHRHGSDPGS
Sequence of Sphingosine 1-phosphate receptor 2 (O95136 whole entry): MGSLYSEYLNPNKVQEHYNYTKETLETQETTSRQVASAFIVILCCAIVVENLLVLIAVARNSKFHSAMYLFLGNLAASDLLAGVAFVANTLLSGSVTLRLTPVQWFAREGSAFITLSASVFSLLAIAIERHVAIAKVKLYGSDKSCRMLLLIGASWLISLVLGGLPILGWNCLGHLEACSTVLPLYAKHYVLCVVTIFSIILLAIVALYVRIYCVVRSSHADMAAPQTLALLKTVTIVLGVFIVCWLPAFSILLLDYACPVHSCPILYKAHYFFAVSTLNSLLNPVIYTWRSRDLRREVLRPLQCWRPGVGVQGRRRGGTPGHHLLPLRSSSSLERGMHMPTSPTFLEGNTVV

## CCOC(=O)C(CC)(CC)C(=O)/C=C/c1ccc(Br)cc1
[1]
  CC50: 40.6 µM (active)
[2]
  AC50: 20.6 µM (active)

## Cc1oc(C)c2c(=O)ccc3c(c12)OC(N)=C(C#N)C3c1ccc(F)cc1 (centres undefined)
[3]
  EC50: 10.3 µM (active)
[4]
  EC50: 9.61 µM (active)
[5]
  CC50: 21.6 µM (active)

## CCCN1CCN(CCCNC(=O)c2cc3c(s2)-c2ccccc2OC3)CC1
[6]
  IC50: 20 µM (active)
[7]
  CC50: > 25 µM (active)

## COc1ccc2nc(O)c(-c3noc(-c4ccc(F)cc4)n3)cc2c1
[8]
  IC50: 6.15 µM (active)
[9]
  IC50: 3.85 µM (active)
[10]
  IC50: > 100 µM (not active)
[11]
  IC50: 2.18 µM (active)
[12]
  IC50: 4.45 µM (active) and 3.6 µM (active)

## CCCn1c(SCC(N)=O)nc2c(c1=O)C1(CCCC1)Cc1ccccc1-2
[13]
  EC50: 4.67 µM (active)

## Cc1cc(C(=O)CN2C(=O)NC3(CCc4ccccc43)C2=O)c(C)n1Cc1ccccc1 (centres undefined)
[14]
  EC50: > 30 µM (not active)

## CCCCCCC#CC1C=CC(OC(C)=O)C(COC(C)=O)O1 (centres undefined)
[15]
  AC50: 3.98 µM (inconclusive)
[16]
  AC50: 3.98 µM (inconclusive)
[17]
  AC50: 7.94 µM (inconclusive)

## CCc1cccc(CC)c1NC(=O)COC(=O)c1ccccc1-c1nc2ccccc2s1
[18]
  IC50: 17.3 µM (not active)
[19]
  IC50: 5.77 µM (active)
